Measurements taken from patent US20130143795A1, “METHOD OF TREATMENT OF HIV OR AIDS” (Adistem Ltd., priority 2010, published 2013).
Where “and” joins values, the source holds several entries; their conditions need not be identical. Equal values may be shown once.

How the values were obtained:
[1] = test system: CXCR4 coreceptor-trophic HT/92/599 strain of HIV-1; test: Antiviral assay in fresh human PBMCs, HIV-1 HT/92/599; assay type: cell-based; settings: for antiviral activity against HIV-1 HT/92/599 (T-cell tropic): concentrations up to a high test concentration of 500 μM
Procedure: (§1) The peptide Ac-LKKTETQ-OH was evaluated in fresh human peripheral blood mononuclear cells (PBMCs) against CXCR4 coreceptor-trophic HT/92/599 and the CCR5 coreceptor-trophic BaL subtype B strains of HIV-1. The peptide was added to the cells at 8 hours prior to infection and immediately prior to infection. The AZT control compound was evaluated in parallel with the peptide and yielded EC50 values of 8 and 6 nM against HIV-1HT/92/599 and values of 6 and 10 nM against HIV-1PaL.

[2] = test system: CCR5 coreceptor-trophic BaL subtype B strain of HIV-1; test: Antiviral assay in fresh human PBMCs, HIV-1 BaL; assay type: cell-based; settings: for antiviral activity against HIV-1 BaL (macrophage tropic): concentrations up to a high test concentration of 500 μM
Procedure: as §1

[3] = Pilot trial: routine pathology and adverse effects; assay type: in vivo, human; settings: 10 mg s.c. once a week for 12 weeks
Procedure: (§2) The peptide Ac-LKKTETQ-OH was the active therapeutic agent investigated in a pilot trial on twenty similar HIV positive men and women, some who had progressed to severe AIDS.
(§3) Each man or women was injected subcutaneously with a composition comprising the peptide Ac-LKKTETQ-OH (10 mg), once a week for 12 weeks. Blood tests for CD4 and CD8-positive cells and HIV viral load (by PCR) and routine pathology were conducted at baseline, 8 weeks and 12 weeks. […] A small drop in blood glucose was seen but this was not determined to be significant.

[4] = test system: CD4-positive white blood cell; test: Pilot trial: CD4-positive white blood cell counts; assay type: in vivo, human
Procedure: as §2, §3

HIV = test: Pilot trial: HIV viral load (by PCR); assay type: in vivo
Procedure: as §2, §3

[5] = test system: CD8-positive white blood cell; test: Pilot trial: CD8-positive white blood cell counts; assay type: in vivo, human
Procedure: as §2, §3

Pilot trial: body weight = assay type: in vivo, human; settings: HIV positive patients, 10 mg s.c. once a week, one value per patient (A-T)
Procedure: as §2, §3

[6] = HIV positive patients and those showing symptoms of AIDS
[7] = HIV positive patients, 10 mg s.c. once a week, 8 weeks, one value per patient (A-T)
[8] = HIV positive patients, 10 mg s.c. once a week, 12 weeks, one value per patient (A-T)

| Compound | antiviral activity against HIV-1 HT/92/599 (T-cell tropic) ([1]; listed as SEQ ID NO: 1) | antiviral activity against HIV-1 HT/92/599 (T-cell tropic) ([1]; listed as SEQ ID NO:1) | antiviral activity against HIV-1 BaL (macrophage tropic) ([2]; listed as SEQ ID NO: 1) | antiviral activity against HIV-1 BaL (macrophage tropic) ([2]; listed as SEQ ID NO:1) | adverse effect [3] | Hemoglobin levels, Creatinine, ALT, AST, Alkaline Phos, Bilirubin, GGT, Albumin, Total Protein and globulin tests ([3]; baseline, 8 and 12 weeks) | blood glucose ([3]; not determined to be significant) | CD4 positive white blood cell counts (summary) [4, 6] | CD4-positive white blood cell count, 8 weeks [4, 7] | CD4-positive white blood cell count, 12 weeks [4, 8] | viral load (summary) (HIV; [6]) | HIV Viral Load, 8 weeks (HIV; HIV positive patients, 10 mg s.c. once a week, 8 weeks, by PCR, one value per patient (A-T)) | HIV Viral Load, 12 weeks (HIV; HIV positive patients, 10 mg s.c. once a week, 12 weeks, by PCR, one value per patient (A-T)) | CD8 positive white blood cell counts (summary) [5, 6] | CD8-positive white blood cell count, 8 weeks [5, 7] | CD8-positive white blood cell count, 12 weeks [5, 8] | Weight, 8 weeks (Pilot trial: body weight; 8 weeks) | Weight, 12 weeks (Pilot trial: body weight; 12 weeks) | EC50 ([1]; two values, evaluated in parallel with peptide added 8 hours prior to and immediately prior to infection, read-out: EC50 against HIV-1HT/92/599) | EC50 ([2]; two values, evaluated in parallel with peptide added 8 hours prior to and immediately prior to infection, read-out: EC50 against HIV-1PaL) |
| --- | --- | --- | --- | --- | --- | --- | --- | --- | --- | --- | --- | --- | --- | --- | --- | --- | --- | --- | --- | --- |
| Ac-LKKTETQ-OH [Ac-LKKTETQ-OH] | no effect | did not demonstrate antiviral activity | no effect | did not demonstrate antiviral activity | No adverse effect | did not show anything remarkable | small drop | increased | 816 and 415 and 158 and 407 and 456 and 477 and 348 and 381 and 439 and 301 and 335 and 543 and 428 and 466 (2×) and 259 and 471 and 300 and 316 and 602 | 879 and 604 and 175 and 425 and 625 and 662 and 404 and 498 and 510 and 424 and 452 and 749 and 616 and 602 and 368 and 469 and 571 and 430 and 416 and 675 | decreased viral load significantly | undetectable (9×) and 28410 copies/ml and 450 copies/ml and 8214 copies/ml and 17616 copies/ml and 15201 copies/ml and 145 copies/ml and 12004 copies/ml and 8781 copies/ml and 200 copies/ml and 98687 copies/ml and 24 copies/ml | undetectable (19×) and 5151 copies/ml | increased | 980 and 360 and 1310 and 1379 and 1044 and 1296 and 959 and 2120 and 866 and 773 and 594 (2×) and 606 and 939 and 617 and 648 and 456 and 1108 and 1125 | 1330 and 459 and 1718 and 1394 and 1339 and 1226 and 1190 and 2647 and 958 and 800 and 712 and 893 and 983 and 1034 and 880 and 890 and 521 and 1384 and 1201 and 660 | 92 and 52 and 59 and 71 and 82 and 79 (2×) and 72 (2×) and 60.5 and 50.5 and 58 and 71.5 and 68.5 and 61 and 56 and 55 and 70 and 78 (2×) | 92 and 52 and 72 (4×) and 82 and 79 and 71 (2×) and 51 and 65 and 80 and 69 and 60 and 55 and 58 and 70.5 and 78.5 (2×) | – | – |
| Cc1cn([C@H]2C[C@H](N=[N+]=[N-])[C@@H](CO)O2)c(=O)[nH]c1=O [AZT, reference compound] | – | – | – | – | – | – | – | – | – | – | – | – | – | – | – | – | – | – | 8 nM and 6 nM | 6 nM and 10 nM |
